Measured values as given in patent US12629378B2, “Treatment of infantile hemangioma” (Arkayli Biopharma Inc., priority 2019, dated 2026).
Converted amounts (≈) assume the structure as drawn.

Experiments:
[1] = cited from earlier work; for Half-Life: in vivo; for distribution half-life: delivered intravenously
[2] = Esmolol solubility in various excipients; assay type: physicochemical
Excerpt: Knowing the solubility of a drug in different excipients and chemical enhancers is important in optimizing the saturation solubility of the drug in topical and transdermal formulations. Here below is a table (Table 1) showing the solubility of esmolol in several excipients and chemical enhancers. The solubility of Esmolol was higher in hydrophilic excipients and lower in the more lipophilic excipients. Several of these compounds were used to prepare the formulations in Example 2, such as the co-enhancing system of oleyl alcohol and propylene glycol.

[3] = cited from earlier work
[4] = children, after an oral dose; cited from earlier work
[5] = tested on: beta adrenergic receptors; conditions: times more potent; cited from earlier work
[6] = drop (0.05 mL) of timolol 0.5% solution to the eye of an adult; cited from earlier work
[7] = children with pediatric glaucoma, intraocular; cited from earlier work
[8] = cited from earlier work; remark: listed apart in the source
[9] = adults; cited from earlier work
[10] = tested on: beta adrenergic receptors; conditions: fraction of the potency of Esmolol; cited from earlier work

Compound: CC(C)(C)NCC(O)COc1cccc2c1CCC(=O)N2 (stereo not shown) [Corteolol]
- Half-Life [1]: 6 to 8 h

Compound: COC(=O)CCc1ccc(OCC(O)CNC(C)C)cc1 (stereo not shown) [Esmolol, methyl 3-[4-[2-hydroxy-3-(propan-2-ylamino)propoxy]phenyl]propanoate]
- Sat. Conc. ([2]; Castor Oil (CO)): 23.4 mg/mL
- Sat. Conc. ([2]; Cotton seed oil (CSO)): 101.9 mg/mL
- Sat. Conc. ([2]; DMSO): 592.1 mg/mL
- Sat. Conc. ([2]; Dipropylene Glycol): 257.6 mg/mL
- Sat. Conc. ([2]; Ethanol): 310.4 mg/mL
- Sat. Conc. ([2]; Glyceryl monooleate (GMO)): 157.3 mg/mL
- Sat. Conc. ([2]; Isopropyl myristate (IPM)): 196.2 mg/mL
- Sat. Conc. ([2]; Lauroglycol FCC (LG)): 122.2 mg/mL
- Sat. Conc. ([2]; Oleic acid (OA)): 56.9 mg/mL
- Sat. Conc. ([2]; Oleyl Alcohol): 112.2 mg/mL
- Sat. Conc. ([2]; Olive Oil (OO)): 58.1 mg/mL
- Sat. Conc. ([2]; PEG-400): 248.6 mg/mL
- Sat. Conc. ([2]; Propylene Glycol): 450.7 mg/mL
- Sat. Conc. ([2]; Sesame oil (SO)): 56.6 mg/mL
- Sat. Conc. ([2]; Transcutol P): 344.5 mg/mL
- solubility thermodynamic ([2]; water, read-out: Sat. Conc.): 704 mg/mL (≈ 2380 mM)
- distribution half-life [1]: about 2 minutes
- Half-Life [1]: 0.15 h

Compound: CC1(C)OC[C@@H](COC(=O)CCc2ccc(OC[C@@H](O)CNCCNC(=O)N3CCOCC3)cc2)O1 [Landiolol, [(4S)-2,2-dimethyl-1,3-dioxolan-4-yl]methyl 3-[4-[(2S)-2-hydroxy-3-[2-(morpholine-4-carbonylamino)ethylamino]propoxy]phenyl]propanoate]
- LogP [3]: 0.44
- distribution half-life [1]: about 2 minutes
- Half-Life [1]: 0.05 to 0.1 h

Compound: COCCc1ccc(OCC(O)CNC(C)C)cc1 (stereo not shown) [Metoprolol]
- Half-Life [1]: 3 to 7 h

Compound: CC(C)(C)NCC(O)COc1cccc2c1CC(O)C(O)C2 (stereo not shown) [Nadolol]
- LogP [3]: 1
- Half-Life [1]: 14 to 25 h

Compound: C=CCOc1ccccc1OCC(O)CNC(C)C (stereo not shown) [Oxprenolol]
- LogP [3]: 2.1
- Half-Life [1]: 1 to 2 h

Compound: CC(C)(C)NC[C@H](O)COc1ccccc1C1CCCC1 [Penbutolol]
- LogP [3]: 4.15
- Half-Life [1]: 20 h

Compound: CC(C)NCC(O)COc1cccc2[nH]ccc12 (stereo not shown) [Pindolol]
- LogP [3]: 1.75
- Half-Life [1]: 3 to 4 h

Compound: CC(C)NCC(O)COc1cccc2ccccc12 (stereo not shown) [Propranolol]
- Half-Life [1]: 4 to 5 h
- time of peak effect on blood pressure and heart rate [4]: around 2 hours

Compound: CC(C)(C)NC[C@H](O)COc1nsnc1N1CCOCC1 [Timolol]
- LogP [3]: 1.4
- Half-Life [1]: 2.5 to 5 h
- potency compared with propranolol [5]: 4-10 times
- fraction of each drop systemically absorbed through the ocular mucosa [6]: approximately 80%
- systemic adverse effects (bradycardia, hypoglycemia, bronchial hyperreactivity), share of children [7]: 3-4%
- plasma samples in which timolol was detected ([8]; 86/92 samples, applied to skin over IH): 93%
- plasma level normalized for dose, mean ([8]; applied to skin over IH): 24.1 ± 62.7 ng/mL/mg
- plasma level normalized for dose, median ([8]; applied to skin over IH): 3 ng/mL/mg
- plasma level normalized for dose, range ([8]; applied to skin over IH): 0.06 to 424 ng/mL/mg
- plasma level, median ([8]; applied to skin over IH): 0.98 ng/mL
- plasma level, range ([8]; applied to skin over IH): 0.03 to 106 ng/mL
- samples with plasma levels >0.2 ng/mL ([8]; applied to skin over IH): 80%
- samples between 0.020-0.2 ng/mL ([8]; of 86 samples): 12/86
- subjects with plasma levels ≥10 ng/mL ([8]; similar to intravenous administration): Ten
- plasma concentration demonstrated to have measurable systemic beta-blocking activity [9]: 0.2 ng/mL

Compound: CC(C)NCC(O)COc1ccc(CCC(=O)O)cc1 (stereo not shown) [inactive metabolite]
- potency relative to Esmolol [10]: 1/1500
